Data taken from the NIST ThermoML archive (doi:10.1016/j.tca.2012.01.007).

Legend:
[1] = wn = mass fraction of the nth substance listed; conditions: 101 kPa, Liquid, Vibrating tube method
[2] = 101 kPa, Liquid, Vibrating tube method

CO [methanol] + OCCNCCO
[1], w2 = 0
Conditions	mass density [kg/m3]
283.15 K	801.436
293.15 K	792.069
303.15 K	782.606
313.15 K	773.049
323.15 K	763.363
333.15 K	753.506

OCCNCCO [diethanolamine]
[2]
Conditions	mass density [kg/m3]
278.14 K	1107.05
283.14 K	1103.88
293.15 K	1097.51
303.14 K	1091.06
313.14 K	1084.49
323.14 K	1077.78
333.14 K	1071
343.14 K	1064.14
348.14 K	1060.68
353.15 K	1056.83

O [water] + OCCNCCO
[1], w2 = 0
Conditions	mass density [kg/m3]
283.15 K	999.964
293.15 K	998.557
303.15 K	995.999
313.15 K	992.57
323.15 K	988.391
333.15 K	983.453
343.14 K	977.483
353.14 K	972.2

OCCNCCO [diethanolamine] + CO
[1]
Conditions	mass density [kg/m3]
283.14 K, w1 = 0.5999	976.523
283.15 K, w1 = 0.1	827.828
283.15 K, w1 = 0.2	855.383
283.15 K, w1 = 0.3	883.986
283.15 K, w1 = 0.3999	913.669
283.15 K, w1 = 0.5002	945.053
283.15 K, w1 = 0.8001	1038.06
283.15 K, w1 = 0.831	1047.98
283.15 K, w1 = 0.9004	1070.41
283.15 K, w1 = 0.9209	1077.24
283.16 K, w1 = 0.6997	1006.57
293.14 K, w1 = 0.1	818.746
293.14 K, w1 = 0.9209	1070.68
293.15 K, w1 = 0.2	846.577
293.15 K, w1 = 0.3	875.502
293.15 K, w1 = 0.3999	905.478
293.15 K, w1 = 0.5002	937.232
293.15 K, w1 = 0.5999	969.048
293.15 K, w1 = 0.6997	999.095
293.15 K, w1 = 0.8001	1030.93
293.15 K, w1 = 0.9004	1063.79
293.16 K, w1 = 0.831	1040.93
303.14 K, w1 = 0.1	809.6
303.14 K, w1 = 0.5999	961.458
303.15 K, w1 = 0.2	837.727
303.15 K, w1 = 0.3	866.962
303.15 K, w1 = 0.3999	897.232
303.15 K, w1 = 0.5002	929.334
303.15 K, w1 = 0.6997	991.41
303.15 K, w1 = 0.8001	1023.79
303.15 K, w1 = 0.831	1033.88
303.15 K, w1 = 0.9004	1057.05
303.15 K, w1 = 0.9209	1064.03
313.14 K, w1 = 0.1	800.368
313.15 K, w1 = 0.2	828.795
313.15 K, w1 = 0.3	858.34
313.15 K, w1 = 0.3999	888.909
313.15 K, w1 = 0.5002	921.353
313.15 K, w1 = 0.5999	953.776
313.15 K, w1 = 0.6997	983.97
313.15 K, w1 = 0.8001	1016.6
313.15 K, w1 = 0.831	1026.78
313.15 K, w1 = 0.9004	1050.22
313.15 K, w1 = 0.9209	1057.29
323.14 K, w1 = 0.1	791.018
323.15 K, w1 = 0.2	819.75
323.15 K, w1 = 0.3	849.609
323.15 K, w1 = 0.3999	880.486
323.15 K, w1 = 0.5002	913.261
323.15 K, w1 = 0.5999	945.981
323.15 K, w1 = 0.6997	976.456
323.15 K, w1 = 0.8001	1009.28
323.15 K, w1 = 0.831	1019.63
323.15 K, w1 = 0.9004	1043.29
323.15 K, w1 = 0.9209	1050.47
333.14 K, w1 = 0.1	781.504
333.14 K, w1 = 0.5999	938.046
333.14 K, w1 = 0.9209	1043.49
333.15 K, w1 = 0.2	810.556
333.15 K, w1 = 0.3	840.739
333.15 K, w1 = 0.3999	871.934
333.15 K, w1 = 0.5002	905.025
333.15 K, w1 = 0.6997	968.833
333.15 K, w1 = 0.8001	1002.21
333.15 K, w1 = 0.831	1012.39
333.15 K, w1 = 0.9004	1036.23

CCO [ethanol]
[2]
Conditions	mass density [kg/m3]
278.15 K	802.686
283.15 K	798.458
293.14 K	789.938
303.14 K	781.332
313.16 K	772.577
323.14 K	763.677
333.14 K	754.521
343.15 K	745.054
348.14 K	740.206

CO [methanol]
[2]
Conditions	mass density [kg/m3]
283.15 K	801.436
293.15 K	792.069
303.15 K	782.606
313.15 K	773.049
323.15 K	763.363
333.15 K	753.506

CCO [ethanol] + OCCNCCO
[1], w2 = 0
Conditions	mass density [kg/m3]
278.15 K	802.686
283.15 K	798.458
293.14 K	789.938
303.14 K	781.332
313.16 K	772.577
323.14 K	763.677
333.14 K	754.521
343.15 K	745.054
348.14 K	740.206

O [water]
[2]
Conditions	mass density [kg/m3]
283.15 K	999.964
293.15 K	998.557
303.15 K	995.999
313.15 K	992.57
323.15 K	988.391
333.15 K	983.453
343.14 K	977.483
353.14 K	972.2
